In patent publication US8324199B2, “Pyridazine derivatives as factor xia inhibitors” (Bristol-Myers Squibb Company, priority 2008, dated 2012):
pKi: −log10 of the molar value.

Target: T1, purified human Factor XIa (Homo sapiens, UniProt P03951)
T1 construct: purchased Haematologic Technologies
Experiment: Factor XIa assay (chromogenic substrate hydrolysis, Ki)
Assay type: biochemical
Conditions: purified human Factor XIa 75-200 pM, substrate S-2366, 50 mM HEPES pH 7.4
Protocol: The effectiveness of compounds of the present invention as inhibitors of the coagulation factors XIa, VIIa, IXa, Xa, XIIa, plasma kallikrein or thrombin, can be determined using a relevant purified serine protease, respectively, and an appropriate synthetic substrate. The rate of hydrolysis of the chromogenic or fluorogenic substrate by the relevant serine protease was measured both in the absence and presence of compounds of the present invention. […] A decrease in the rate of absorbance or fluorescence change in the presence of inhibitor is indicative of enzyme inhibition. Such methods are known to one skilled in the art. The results of this assay are expressed as the inhibitory constant, Ki.
Factor XIa determinations were made in 50 mM HEPES buffer at pH 7.4 containing 145 mM NaCl, 5 mM KCl, and 0.1% PEG 8000 (polyethylene glycol; JT Baker or Fisher Scientific). Determinations were made using purified human Factor XIa at a final concentration of 75-200 pM (Haematologic Technologies) and the synthetic substrate S-2366 (pyroGlu-Pro-Arg-pNA; Chromogenix or AnaSpec) at a concentration of 0.0002-0.001 M.
The Michaelis constant, Km, for substrate hydrolysis by each protease, was determined at 25° C. using the method of Lineweaver and Burk. Values of Ki were determined by allowing the protease to react with the substrate in the presence of the inhibitor. Reactions were allowed to go for periods of 20-180 minutes (depending on the protease) and the velocities (rate of absorbance or fluorescence change versus time) were measured. The following relationships were used to calculate Ki values: (vo−vs)/vs=I/(Ki(1+S/Km)) for a competitive inhibitor with one binding site; or vs/vo=A+((B−A)/1+((IC50/(I)^n))); and Ki=IC50/(1+S/Km) for a competitive inhibitor where: […]

T1 sequence (P03951 388-625 limits assumed): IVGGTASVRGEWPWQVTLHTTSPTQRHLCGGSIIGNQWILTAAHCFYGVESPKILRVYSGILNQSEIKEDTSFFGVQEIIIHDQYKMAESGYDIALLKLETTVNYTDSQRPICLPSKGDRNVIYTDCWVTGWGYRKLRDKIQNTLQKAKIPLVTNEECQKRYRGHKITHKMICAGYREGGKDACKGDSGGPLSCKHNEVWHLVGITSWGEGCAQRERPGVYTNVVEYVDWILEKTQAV
T1 sequence (P03951 19-387 partner limits assumed): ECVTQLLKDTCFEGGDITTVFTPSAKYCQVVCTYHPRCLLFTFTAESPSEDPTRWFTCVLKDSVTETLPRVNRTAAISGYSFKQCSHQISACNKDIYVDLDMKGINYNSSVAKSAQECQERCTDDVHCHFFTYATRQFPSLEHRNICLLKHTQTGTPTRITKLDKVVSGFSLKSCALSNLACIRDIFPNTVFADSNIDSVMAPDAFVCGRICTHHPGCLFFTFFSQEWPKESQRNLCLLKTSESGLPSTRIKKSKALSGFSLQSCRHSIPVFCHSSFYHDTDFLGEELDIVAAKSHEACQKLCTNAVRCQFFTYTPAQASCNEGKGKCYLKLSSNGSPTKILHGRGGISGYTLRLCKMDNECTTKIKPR

pKi | Compound
5.78 | COC(=O)Nc1ccc(-c2cc([C@H](Cc3ccccc3)NC(=O)/C=C/c3cc(Cl)ccc3-n3cnnn3)n[nH]c2=O)cc1F [Example 61, (S,E)-Methyl 4-(6-(1-(3-(5-chloro-2-(1H-tetrazol-1-yl)phenyl)acrylamido)-2-phenylethyl)-3-oxo-2,3-dihydropyridazin-4-yl)-2-fluorophenylcarbamate]
5.29 | COC(=O)Nc1ccc(-c2cc([C@H](CC3CCN(C(=O)OCc4ccccc4)C3)NC(=O)/C=C/c3cc(Cl)ccc3-n3cnnn3)n[nH]c2=O)cc1 (stereo partly drawn) [Example 147, Benzyl 3-((S)-2-((E)-3-(5-chloro-2-(1H-tetrazol-1-yl)phenyl)acrylamido)-2-(5-(4-(methoxycarbonylamino)phenyl)-6-oxo-1,6-dihydropyridazin-3-yl)ethyl)pyrrolidine-1-carboxylate]
8.70 | COC(=O)Nc1ccc(-c2cc(C(Cc3ccccc3)NC(=O)/C=C/c3cc(Cl)ccc3-n3cnnn3)c(Cl)nn2)cc1 (single isomer, unassigned) [Example 2, (E)-Methyl 4-(6-chloro-5-(1-(3-(5-chloro-2-(1H-tetrazol-1-yl)phenyl)acrylamido)-2-phenylethyl)pyridazin-3-yl)phenylcarbamate]
6.39 | CCOC(=O)Nc1ccc(-c2cc([C@H](Cc3ccccc3)NC(=O)/C=C/c3cc(Cl)ccc3-n3cnnn3)nnc2OCC)cc1 [Example 51, (S,E)-Ethyl 4-(6-(1-(3-(5-chloro-2-(1H-tetrazol-1-yl)phenyl)acrylamido)-2-phenylethyl)-3-ethoxypyridazin-4-yl)phenylcarbamate]

The next lines start with the compound.

Compound | pKi
COC(=O)Nc1ccc(-c2cc(C(Cc3ccccc3)NC(=O)/C=C/c3cc(Cl)ccc3-n3ccnc3)c(Cl)nn2)cc1 (racemic) [Example 8, (±)-(E)-Methyl 4-(6-chloro-5-(1-(3-(5-chloro-2-(1H-imidazol-1-yl)phenyl)acrylamido)-2-phenylethyl)pyridazin-3-yl)phenylcarbamate] | 5.93
COC(=O)Nc1ccc(-c2cc(C(C)NC(=O)/C=C/c3cc(Cl)ccc3-n3cnnn3)c(Cl)nn2)cc1 (racemic) [Example 11, (±)-(E)-Methyl 4-(6-chloro-5-(1-(3-(5-chloro-2-(1H-tetrazol-1-yl)phenyl)acrylamido)ethyl)pyridazin-3-yl)phenylcarbamate] | 7.28
COC(=O)Nc1ccc(-c2cc([C@H](CC3CCCNC3)NC(=O)/C=C/c3cc(Cl)ccc3-n3cnnn3)nnc2Cl)cc1 (single isomer, unassigned) [Example 99] | 6.13
O=C(/C=C/c1cc(Cl)ccc1-n1cnnn1)N[C@@H](Cc1ccccc1)c1cc(-c2ccc3[nH]c(=O)cc(O)c3c2)cnn1 [Example 78, (S,E)-3-(5-Chloro-2-(1H-tetrazol-1-yl)phenyl)-N-(1-(5-(4-hydroxy-2-oxo-1,2-dihydroquinolin-6-yl)pyridazin-3-yl)-2-phenylethyl)acrylamide] | 9.08
COC(=O)Nc1ccc(-c2cc([C@H](Cc3cc4n(n3)CCCO4)NC(=O)/C=C/c3cc(Cl)ccc3-n3cnnn3)nnc2Cl)cc1 [Example 97, (S,E)-Methyl 4-(3-chloro-6-(1-(3-(5-chloro-2-(1H-tetrazol-1-yl)phenyl)acrylamido)-2-(6,7-dihydro-5H-pyrazolo[5,1-b][1,3]oxazin-2-yl)ethyl)pyridazin-4-yl)phenylcarbamate] | 7.77
